Assays:
eIF4E = test system: eIF4E; set-up: method as in PMID 22316555; details: cited from earlier work
DcpS = target: T1, DcpS (Homo sapiens, UniProt Q96C86); assay: FA screening of in-house library, 2i:DcpS system; assay type: binding; details: 1 nM 2i, 25 nM DcpS, 1.5 µM inhibitor
T1 construct: His tag; made in house; host or cells: E. coli BL21(DE3) RIL
T1 sequence (Q96C86 1-337): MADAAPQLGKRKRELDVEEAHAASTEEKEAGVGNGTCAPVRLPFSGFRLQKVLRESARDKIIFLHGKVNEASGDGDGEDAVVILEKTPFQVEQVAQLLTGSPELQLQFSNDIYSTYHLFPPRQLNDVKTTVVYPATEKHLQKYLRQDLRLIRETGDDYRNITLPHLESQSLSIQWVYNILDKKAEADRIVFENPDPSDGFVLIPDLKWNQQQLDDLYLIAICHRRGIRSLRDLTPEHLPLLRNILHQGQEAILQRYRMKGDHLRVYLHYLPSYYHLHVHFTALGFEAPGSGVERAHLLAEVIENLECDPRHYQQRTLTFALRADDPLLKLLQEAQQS
Method: The Z’ factor was determined under conditions optimized for the competition assay. The Z’ value exceeded 0.8 for incubation times up to 1 h, making the assay suitable for screening experiments (Table 5). A screening experiment was then performed using the same compound library as that used for eIF4E screening. The results highlighted the impact of the triphosphate bridge modification on the affinity for the protein. […] The FA method also enabled the identification of unstable compounds, e.g., hydrozylable ligands for which determination of affinity is problematic (as observed by FA signal changes during the experiment; Fig. 7).
To evaluate the quality of the assay, the Z’ factor was determined for several protein-probe combinations. The assay was performed on 96-well microplates, where half of the samples were negative controls and the other half were positive controls.
For the screening experiments a small in-house library containing 21 ligands was used. Experiments were conducted in the same manner as Z’ factor determination, with exception that the ligand concentration was modified (eIF4E screening conditions: 1 nM 1e, 100 nM eIF4E, 750 nM ligand, DcpS screening conditions: 1 nM 2i, 25 nM DcpS, 1.5 µM ligand). For eIF4E screening experiment, the 1e:eIF4E system was used, for DcpS screening 2i:DcpS system was used.

C[n+]1cn([C@@H]2O[C@H](COP(=O)([O-])NP(=O)([O-])OP(=O)([O-])OP(=O)([O-])OC[C@H]3O[C@@H](n4cnc5c(=O)[nH]c(N)nc54)[C@H](O)[C@@H]3O)[C@@H](O)[C@H]2O)c2nc(N)[nH]c(=O)c21.[Na+].[Na+].[Na+] [m^7GpNHpppG]
association constant KAS (eIF4E): 112.3 ± 1.8 µM⁻¹
inhibitory potency in DcpS screening (DcpS): strong DcpS inhibitors
